The assay deals with c-MET (Homo sapiens, UniProt P08581). The experiment in a line: Ki determination for the inhibition of c-MET (standard radiometric 33P-ATP kinase assay, polyE4Y substrate). The following applies: 1.0 nM c-Met, 35 μM ATP, 0.5 mg/mL polyE4Y, 20 min; competitive tight-binding fit. It is filed as biochemical. Put shortly:
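Ki obtained by fitting data to competitive tight-binding inhibition kinetics. c-Met at 1.0 nM phosphorylated polyE4Y (0.5 mg/mL) with 35 μM 33P-ATP for 20 min in pH 7.5 HEPES buffer with MgCl2, NaCl, BSA and DTT. Incorporated label measured by scintillation after TCA precipitation on filters.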
c-MET, sequence (P08581 25-1390): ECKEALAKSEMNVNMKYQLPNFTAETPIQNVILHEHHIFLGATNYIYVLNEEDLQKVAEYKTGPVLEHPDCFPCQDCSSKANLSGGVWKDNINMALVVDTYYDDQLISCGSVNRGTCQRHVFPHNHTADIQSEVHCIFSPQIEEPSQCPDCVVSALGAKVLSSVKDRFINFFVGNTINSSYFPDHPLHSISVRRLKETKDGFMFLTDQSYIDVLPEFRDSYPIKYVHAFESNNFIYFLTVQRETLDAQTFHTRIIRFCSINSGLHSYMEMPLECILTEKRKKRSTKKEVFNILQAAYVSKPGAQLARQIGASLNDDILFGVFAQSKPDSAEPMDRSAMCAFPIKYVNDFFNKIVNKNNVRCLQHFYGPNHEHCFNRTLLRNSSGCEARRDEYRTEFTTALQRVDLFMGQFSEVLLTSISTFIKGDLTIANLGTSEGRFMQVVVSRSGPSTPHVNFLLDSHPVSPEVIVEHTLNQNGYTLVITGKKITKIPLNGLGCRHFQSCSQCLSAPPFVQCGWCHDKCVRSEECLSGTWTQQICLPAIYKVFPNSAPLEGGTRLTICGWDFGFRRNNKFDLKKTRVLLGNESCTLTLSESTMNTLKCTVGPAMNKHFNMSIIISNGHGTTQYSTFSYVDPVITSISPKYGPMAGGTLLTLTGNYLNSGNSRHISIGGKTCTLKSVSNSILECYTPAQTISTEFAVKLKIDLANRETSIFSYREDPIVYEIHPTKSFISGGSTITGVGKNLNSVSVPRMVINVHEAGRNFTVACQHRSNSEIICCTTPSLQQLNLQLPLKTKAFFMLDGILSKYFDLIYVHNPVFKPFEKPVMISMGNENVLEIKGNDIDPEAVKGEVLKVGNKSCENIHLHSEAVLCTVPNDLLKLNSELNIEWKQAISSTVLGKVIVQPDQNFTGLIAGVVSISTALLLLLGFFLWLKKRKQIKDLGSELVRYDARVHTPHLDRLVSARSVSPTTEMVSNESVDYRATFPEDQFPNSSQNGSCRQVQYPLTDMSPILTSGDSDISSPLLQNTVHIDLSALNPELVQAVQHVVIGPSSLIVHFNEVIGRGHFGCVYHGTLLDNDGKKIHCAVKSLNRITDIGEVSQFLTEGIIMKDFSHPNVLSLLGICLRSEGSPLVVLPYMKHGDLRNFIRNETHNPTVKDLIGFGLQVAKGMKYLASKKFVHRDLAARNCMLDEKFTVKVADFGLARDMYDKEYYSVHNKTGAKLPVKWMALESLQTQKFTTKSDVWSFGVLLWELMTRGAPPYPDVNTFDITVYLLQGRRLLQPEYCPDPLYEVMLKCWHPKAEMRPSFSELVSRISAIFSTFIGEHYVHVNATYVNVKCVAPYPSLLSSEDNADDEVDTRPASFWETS
Molecule `Nc1cccc(-c2cnc(N)c(-c3nncn3-c3cccc(Cl)c3Cl)c2)c1` [I-A-68] gave an inhibition constant Ki of 100 to 1000 nM.

In the case of `CN1CCN(Cc2ccc(-c3cnc(N)c(-c4nnc(O)n4-c4cccc(F)c4F)c3)cc2)CC1` [I-A-42], the Ki lay in the range of 100 to 1000 nM.

`Nc1ncc(-c2ccc(C(N)C(=O)O)cc2)cc1-c1nnnn1-c1cccc(F)c1F` (stereo not drawn) [I-A-205] displayed a Ki of 100 to 1000 nM.

`COCCOC(=O)Nc1ccc(-c2cnc(N)c(-c3nnnn3-c3cccc(F)c3F)c2)cc1` [I-A-277] yielded a Ki of at most 100 nM.

Consider `Nc1ncc(-c2ccn(C3CCNCC3)c2)nc1-c1nnnn1-c1cccc(F)c1F` [I-A-534], for which the inhibition constant Ki was at most 100 nM.

Turning to `Nc1ncc(-c2ccc(NC(=O)CN3CCOCC3)cc2)cc1-c1nnnn1-c1cccc(F)c1F` [I-A-163], the Ki lay within 100 to 1000 nM.

As for `Nc1ncc(-c2cnn([C@@H]3CCOC3)c2)cc1-c1nnnn1-c1cccc(-c2cnn([C@@H]3CCOC3)c2)c1F` [I-A-421], the Ki fell in the range of 100 to 1000 nM.

As for `Nc1ncc(-c2ccc(CN3CCCC3)cc2)cc1-c1nccn1-c1cccc(Cl)c1Cl` [I-A-393], the Ki is at most 100 nM.

For the molecule `CC(=O)c1cccc(-c2cnc(N)c(-c3nncn3-c3cccc(F)c3F)n2)c1` [I-A-29], the Ki lay within 100 to 1000 nM.

`CC1(C)CN(c2ccc(-c3cnc(N)c(-c4nnnn4-c4cccc(F)c4F)c3)cc2)C1=O` [I-A-357] yielded a Ki of 100 to 1000 nM.

In turn, `Nc1ncc(-c2cnn([C@@H]3CCOC3)c2)cc1-c1nnnn1-c1cccc(F)c1F` [I-A-419] yielded an inhibition constant Ki of at most 100 nM.

`Nc1ncc(-c2nccs2)cc1-c1nnnn1-c1cccc(F)c1F` [I-A-539]: the Ki lay in the range of 100 to 1000 nM.

Molecule `CN(C)Cc1ccc(-c2cnc(N)c(-c3nnnn3-c3c(F)cccc3Cl)c2)cc1` [I-A-623] displayed a Ki of at most 100 nM.

Molecule `Nc1ncc(-c2cccnc2)cc1-c1nnnn1-c1cccc(F)c1F` [I-A-20] had a Ki of 100 to 1000 nM.

Molecule `Nc1ncc(-c2ccc(CN3CCCC3)cc2)cc1-c1nnnn1-c1c(F)ccc(F)c1Cl` [I-A-620] came in with a Ki of at most 100 nM.

In turn, `CC(=O)Nc1ccc(-c2cnc(N)c(-c3nnnn3-c3cccc(F)c3C)c2)cc1` [I-A-574] registered an inhibition constant Ki of 100 to 1000 nM.

`Nc1ncc(-c2cnn(CC3CCNCC3)c2)cc1-c1nnnn1-c1cccc(F)c1F` [I-A-502] displayed an inhibitory constant (Ki) of at most 100 nM.

Molecule `Nc1ncc(-c2cccc(N3CCNCC3)c2)cc1-c1nccn1-c1cccc(Cl)c1Cl` [I-A-401] registered a Ki of at most 100 nM.

The molecule `Nc1ncc(-c2ccc(CN3CCCC3)cc2)cc1-c1nnnn1-c1c(F)ccc(Cl)c1F` [I-A-376] returned a Ki of at most 100 nM.

The molecule `CS(=O)(=O)c1ccc(-c2cnc(N)c(-c3nncn3-c3cccc(F)c3F)n2)cc1` [I-A-32] came in with a Ki of at most 100 nM.

`C[C@H](c1ccc(-c2cnc(N)c(-c3nnnn3-c3cccc(F)c3F)c2)cc1)N1CCCC1` [I-A-212] showed a Ki of at most 100 nM.

In turn, `CCC(=O)N1CC=C(c2cnc(N)c(-c3nnnn3-c3cccc(F)c3F)c2)CC1` [I-A-511] registered an inhibition constant (Ki) of at most 100 nM.

`CC(=O)Nc1ccc(-c2cnc(N)c(-c3nnnn3-c3cc(Cl)cc(Cl)c3)c2)cc1` [I-A-587] displayed a Ki of 100 to 1000 nM.

`CC(=O)Nc1ccc(-c2cnc(N)c(-c3nnnn3-c3cccc(F)c3F)c2)cc1` [I-A-138] showed an inhibitory constant (Ki) of at most 100 nM.

`Nc1ncc(-c2ccn(CCN3CCCC3)c2)cc1-c1nnnn1-c1cccc(F)c1F` [I-A-466] yielded a Ki of at most 100 nM.

Molecule `COc1c(F)cccc1-n1nnnc1-c1cc(-c2cccc(NC(C)=O)c2)cnc1N` [I-A-562] registered an inhibition constant (Ki) of 100 to 1000 nM.

Molecule `Nc1ncc(-c2cnn(C3CCN(C(=O)N4CCCC4)CC3)c2)cc1-c1nnnn1-c1cccc(Cl)c1F` [I-A-443] gave an inhibitory constant (Ki) of at most 100 nM.

On to `COc1c(F)cccc1-n1nnnc1-c1cc(-c2cccnc2)cnc1N` [I-A-561], for which the Ki lay in the range of 100 to 1000 nM.

Turning to `Nc1ncc(-c2cnn([C@@H]3CCOC3)c2)cc1-c1nnnn1-c1cccc(Cl)c1F` [I-A-420], the Ki was at most 100 nM.

`C[C@H](c1ccc(-c2cnc(N)c(-c3nnnn3-c3cccc(F)c3F)c2)cc1)N(C)C` [I-A-152] returned an inhibitory constant (Ki) of at most 100 nM.

As to `Cn1cc(-c2cccc(Cl)c2Cl)c(-c2cc(-c3ccc(N4CCCC4)nc3)cnc2N)n1` [I-B-20], the Ki fell in the range of 100 to 1000 nM.

`CCN(CCO)Cc1ccc(-c2cnc(N)c(-c3nnnn3-c3cccc(F)c3F)c2)cc1` [I-A-146] had a Ki of at most 100 nM.

In the case of `Nc1ncc(-c2cnn(C3CCN(C(=O)C(F)(F)F)CC3)c2)cc1-c1nnnn1-c1cccc(F)c1Cl` [I-A-395], the inhibition constant (Ki) fell in the range of 100 to 1000 nM.

`Nc1ncc(-c2ccsc2)cc1-c1nncn1-c1cccc(Cl)c1Cl` [I-A-70]: the inhibition constant (Ki) is 100 to 1000 nM.

For the molecule `Nc1ncc(-c2ccco2)cc1-c1nnnn1-c1cccc(F)c1F` [I-A-488], the Ki is 100 to 1000 nM.

`CCOC(=O)Cn1cc(-c2cnc(N)c(-c3nnnn3-c3cccc(F)c3F)c2)cn1` [I-A-345] came in with a Ki of at most 100 nM.

`CCNC(=O)Nc1nc2cc(OC)c(-c3cnc(N)c(-c4nnnn4-c4cccc(F)c4F)n3)cc2[nH]1` [I-A-55] showed an inhibition constant (Ki) of 100 to 1000 nM.

As for `Nc1ncc(-c2cnn(CCN3CCCC3)c2)cc1-c1nc2cnccc2n1-c1cccc(F)c1F` [I-D-11], the inhibitory constant (Ki) was at most 100 nM.

On to `CC(=O)Nc1cccc(-c2cnc(N)c(-c3nnnn3-c3cc(F)ccc3F)c2)c1` [I-A-567], for which the Ki was in the range of 100 to 1000 nM.

Molecule `Nc1ncc(-c2cnn(C3CCNCC3)c2)cc1-c1nnnn1-c1cccc(F)c1F` [I-A-370] displayed an inhibition constant (Ki) of at most 100 nM.

`Nc1ncc(-c2cnn([C@H]3CCCNC3)c2)cc1-c1nnnn1-c1cccc(Cl)c1Cl` [I-A-409] returned an inhibition constant (Ki) of at most 100 nM.

Molecule `CN(C)Cc1ccc(-c2cnc(N)c(-c3nnnn3-c3cccc(Cl)c3Cl)c2)cc1` [I-A-79] showed a Ki of at most 100 nM.

In turn, `N#Cc1cc(-c2cnc(N)c(-c3nnnn3-c3cccc(F)c3F)c2)ccc1N1CCCC1` [I-A-336] had a Ki of 100 to 1000 nM.

`Nc1ncc(-c2ccc(CN3CCCC3)cc2)cc1-c1nnnn1-c1cc(F)ccc1F` [I-A-594] showed an inhibitory constant (Ki) of 100 to 1000 nM.

Molecule `Nc1ncc(-c2ccc(CN3CCCC3)cc2)cc1-c1nc2cccnc2n1-c1cccc(Cl)c1F` [I-D-14] returned a Ki of 100 to 1000 nM.

Regarding `Nc1ncc(-c2cnc(C3CCNCC3)s2)cc1-c1nnnn1-c1cccc(Cl)c1F` [I-A-491], the inhibitory constant (Ki) is at most 100 nM.

Regarding `Nc1ccc(-c2cnc(N)c(-c3nnnn3-c3cccc(F)c3F)c2)cc1F` [I-A-286], the inhibition constant Ki was at most 100 nM.

With `COc1ccc(F)cc1-n1nnnc1-c1cc(-c2ccc(NC(C)=O)cc2)cnc1N` [I-A-585], the inhibition constant Ki is 100 to 1000 nM.

Regarding `Nc1ncc(-c2ccc(CN3CCCC3)cc2)cc1-c1nnnn1-c1cccc(Cl)c1Cl` [I-A-94], the Ki is at most 100 nM.

Consider `CN1CCN(c2ccc(-c3cnc(N)c(-c4nnsc4-c4cccc(Cl)c4Cl)c3)cc2)CC1` [I-C-3], for which the inhibition constant (Ki) is at most 100 nM.

Consider `Nc1nc2cc(-c3cnc(N)c(-c4nnnn4-c4cccc(F)c4F)c3)c(F)cc2[nH]1` [I-A-141], for which the Ki was at most 100 nM.

`CC(=O)Nc1ccc(-c2cnc(N)c(-c3nnnn3-c3cccc(F)c3F)c2)s1` [I-A-263] displayed a Ki of at most 100 nM.

The molecule `Nc1ncc(-c2cnn(C3CCNCC3)c2)cc1-c1nnnn1-c1c(F)ccc(F)c1Cl` [I-A-640] displayed a Ki of at most 100 nM.

The molecule `CN(C)CCCNC(=O)c1ccc(-c2cnc(N)c(-c3nnnn3-c3cccc(Cl)c3Cl)c2)cc1` [I-A-125] yielded a Ki of at most 100 nM.

For the molecule `CC(C)C(=O)Nc1cccc(-c2cnc(N)c(-c3nnnn3-c3cccc(F)c3F)c2)c1` [I-A-260], the Ki lay in the range of 100 to 1000 nM.

`CN(C)Cc1ccc(-c2cnc(N)c(-c3nnnn3-c3cc(Cl)ccc3F)c2)cc1` [I-A-593] yielded a Ki of 100 to 1000 nM.

As to `COC(=O)C(C)(C)c1ccc(-c2cnc(N)c(-c3nnnn3-c3cccc(F)c3F)c2)cc1` [I-A-207], the Ki was at most 100 nM.

In turn, `CNCc1ccc(-c2cnc(N)c(-c3nnnn3-c3cccc(F)c3F)c2)cc1` [I-A-200] returned an inhibition constant Ki of at most 100 nM.

Consider `Nc1ncc(-c2ccc(CC3(O)CCNCC3)cc2)cc1-c1nnnn1-c1cccc(F)c1F` [I-A-157], for which the Ki was at most 100 nM.

On to `Nc1ncc(-c2ccc3c(c2)NC(=O)C3)cc1-c1nnnn1-c1cccc(F)c1F` [I-A-190], for which the inhibition constant (Ki) is at most 100 nM.

`Nc1ncc(-c2cccnc2)cc1-c1nncn1-c1cccc(F)c1F` [I-A-39] had an inhibition constant Ki of 100 to 1000 nM.

The molecule `COCCn1cc(-c2cnc(N)c(-c3nnnn3-c3cccc(F)c3F)c2)cn1` [I-A-367] registered a Ki of at most 100 nM.

As to `CN1CCN(c2ccc(-c3cnc(N)c(-c4nnnn4-c4cccc(F)c4F)c3)cc2)CC1` [I-A-19], the Ki was at most 100 nM.

`Cc1ccc(Cl)cc1-n1nnnc1-c1cc(-c2ccc(CN3CCCC3)cc2)cnc1N` [I-A-600] came in with a Ki of 100 to 1000 nM.

`CN1CCC(n2cc(-c3cnc(N)c(-c4nnnn4-c4cccc(F)c4F)c3)cn2)CC1` [I-A-434] returned an inhibition constant (Ki) of at most 100 nM.

The molecule `CC(C)CN1CCC(n2cc(-c3cnc(N)c(-c4nnnn4-c4cccc(Cl)c4F)c3)cn2)CC1` [I-A-475] returned a Ki of at most 100 nM.

Take `Nc1ncc(-c2ccncc2)cc1-c1nnnn1-c1cccc(Cl)c1Cl` [I-A-84]: the Ki fell in the range of 100 to 1000 nM.

As for `COc1c(F)cccc1-n1nnnc1-c1cc(-c2ccc(NC(C)=O)cc2)cnc1N` [I-A-588], the Ki was in the range of 100 to 1000 nM.

Regarding `Nc1ncc(-c2cc(Cl)c(N)c(Cl)c2)cc1-c1nnnn1-c1cccc(F)c1F` [I-A-287], the inhibition constant Ki is at most 100 nM.

In the case of `CC(=O)Nc1cccc(-c2cnc(N)c(-c3nnnn3-c3cc(F)ccc3Cl)c2)c1` [I-A-569], the Ki lay within 100 to 1000 nM.

The molecule `Nc1ncc(-c2ccc(CN3CCCC3)cc2)cc1-c1nnnn1-c1cc(F)cc(F)c1` [I-A-603] gave a Ki of 100 to 1000 nM.

Molecule `Nc1ncc(-c2ccc(CN3CCC[C@@H]3CN3CCCC3)cc2)cc1-c1nnnn1-c1cccc(Cl)c1Cl` [I-A-118] showed a Ki of at most 100 nM.

Turning to `CC(=O)Nc1ccc(-c2cnc(N)c(-c3nnnn3-c3cccc(Cl)c3F)c2)cc1` [I-A-584], the inhibition constant (Ki) is at most 100 nM.

Molecule `CN1CCN(C(=O)Nc2cccc(-c3cnc(N)c(-c4nnnn4-c4cccc(F)c4F)c3)c2)CC1` [I-A-270] registered a Ki of 100 to 1000 nM.

Consider `Nc1ncc(-c2ccc(CN3CCOCC3)cc2)nc1-c1nncn1-c1cccc(F)c1F` [I-A-5], for which the Ki is at most 100 nM.

For the origin of these results see patent publication US8232406B2, “c-MET protein kinase inhibitors” (Vertex Pharmaceuticals Incorporated, priority 2006, dated 2012).
